# Counter-ions that a name gives are not always drawn.
# Tests used:
# human and animal plasma = assay: Determination of anticoagulatory activity: activated partial thromboplastin time (aPTT) in plasma; conditions: concentration of test substance which brings about a 1.5-fold extension of the aPTT; plasma species not given
# Description: The anticoagulatory activity of the test substances is determined in vitro in human and animal plasma (for example mouse, rat, rabbit, pig and dog plasma). To this end, blood is drawn off in a mixing ratio of sodium citrate/blood of 1:9 using a 0.11 molar sodium citrate solution as receiver. Immediately after the blood has been drawn off, it is mixed thoroughly and centrifuged at about 4000 g for 15 minutes. The supernatant is pipetted off.
# The activated partial thromboolastin time (aPTT) is determined in the presence of varying concentrations of test substance or the corresponding solvent using a commercial test kit (C. K. Prest from Diagnostica Stago). The test compounds are incubated with the plasma and the PTT reagent (cephalin, kaolin) at 37° C. for 3 minutes. Coagulation is then started by addition of a 25 mM aqueous calcium chloride solution, and the time when coagulation occurs is determined. The concentration of test substance which brings about a 1.5-fold extension of the aPTT is determined.
# human factor XIa = target: T1, human factor XIa (Homo sapiens, UniProt P03951); assay: Measurement of FXIa inhibition (fluorogenic peptide substrate Boc-Glu(OBzl)-Ala-Arg-AMC); type: biochemical; conditions: factor XIa from Kordia, 15 min preincubation, 30 min at 22° C., fluorescence
# T1 construct: purchased Kordia
# T1 sequence (P03951 388-625 limits assumed): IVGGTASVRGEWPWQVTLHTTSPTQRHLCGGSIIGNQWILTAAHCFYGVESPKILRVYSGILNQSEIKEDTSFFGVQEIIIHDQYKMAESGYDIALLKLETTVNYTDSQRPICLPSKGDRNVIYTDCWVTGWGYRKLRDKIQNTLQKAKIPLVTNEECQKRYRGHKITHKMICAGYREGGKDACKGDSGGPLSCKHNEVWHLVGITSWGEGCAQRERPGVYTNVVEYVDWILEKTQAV
# T1 sequence (P03951 19-387 partner limits assumed): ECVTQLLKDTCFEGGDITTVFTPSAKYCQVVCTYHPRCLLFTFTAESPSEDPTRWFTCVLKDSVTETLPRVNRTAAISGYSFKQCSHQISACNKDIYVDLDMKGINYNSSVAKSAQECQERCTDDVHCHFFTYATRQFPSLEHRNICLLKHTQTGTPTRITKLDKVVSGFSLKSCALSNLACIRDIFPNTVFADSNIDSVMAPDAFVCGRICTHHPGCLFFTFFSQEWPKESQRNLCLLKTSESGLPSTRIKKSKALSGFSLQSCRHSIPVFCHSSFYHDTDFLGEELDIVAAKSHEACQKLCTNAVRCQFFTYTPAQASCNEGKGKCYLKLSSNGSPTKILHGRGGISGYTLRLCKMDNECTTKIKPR
# Description: The factor XIa inhibition of the inventive substances is determined using a biochemical test system which utilizes the reaction of a peptidic factor XIa substrate to determine the enzymatic activity of human factor XIa. Here, factor XIa cleaves from the peptic factor XIa substrate the C-terminal aminomethylcoumarin (AMC), the fluorescence of which is measured. The determinations are carried out in microtitre plates.
# Test substances are dissolved in dimethyl sulphoxide and serially diluted in dimethyl sulphoxide (3000 μM to 0.0078 μM; resulting final concentrations in the test: 50 μM to 0.00013 μM). In each case 1 μl of the diluted substance solutions is placed into the wells of white microtitre plates from Greiner (384 wells). Subsequently, the following are added successively: 20 μl of assay buffer (50 mmol/l Tris buffer pH 7.4; 100 mmol/l sodium chloride; 5 mmol/l calcium chloride; 0.1% bovine serum albumin) and 20 μl of factor XIa from Kordia (0.45 nM in assay buffer). After 15 min of incubation, the enzyme reaction is started by addition of 20 μl of the factor XIa substrate Boc-Glu(OBzl)-Ala-Arg-AMC dissolved in assay buffer (10 μM in assay buffer) from Bachem, the mixture is incubated at room temperature (22° C.) for 30 min and fluorescence is then measured (excitation: 360 nm, emission: 460 nm). The measured emissions of the test mixtures with test substance are compared to those of control mixtures without test substance (only dimethyl sulphoxide instead of test substance in dimethyl sulphoxide), and the IC50 values are calculated from the concentration/activity relationships.
SMILES,aPTT (human and animal plasma) [µmol/L],IC50 (human factor XIa) [nM]
"CNC(=O)C(F)(F)C(F)(F)c1n[nH]c(-c2ccc(NC(=O)[C@H](Cc3ccc(-c4ccc(C(=O)NC5CCNCC5)cc4C)cc3)NC(=O)[C@H]3CC[C@H](CN)CC3)cc2)n1 [Example 128, 4′-{(2S)-2-({[trans-4-(Aminomethyl)cyclohexyl]carbonyl}amino)-3-oxo-3-[(4-{3-[1,1,2,2-tetrafluoro-3-(methylamino)-3-oxopropyl]-1H-1,2,4-triazol-5-yl}phenyl)amino]propyl}-2-methyl-N-(piperidin-4-yl)biphenyl-4-carboxamide hydrochloride]",0.14,1.7
"Cc1cc(C(=O)NCCCN(C)C)ccc1-c1ccc(C[C@H](NC(=O)[C@H]2CC[C@H](CN)CC2)C(=O)Nc2ccc(-c3nn[nH]n3)cc2)cc1 [Example 35, 4′-[(2S)-2-({[trans-4-(Aminomethyl)cyclohexyl]carbonyl}amino)-3-oxo-3-{[4-(2H-tetrazol-5-yl)phenyl]amino}propyl]-N-[3-(dimethylamino)propyl]-2-methylbiphenyl-4-carboxamide hydrochloride]",0.11,2.3
"Cc1cc(C(=O)NC2CCNCC2)ccc1-c1ccc(C[C@H](NC(=O)[C@H]2CC[C@H](CN)CC2)C(=O)Nc2ccc(-c3nc(C(F)(F)C(F)(F)C(=O)N(C)C)n[nH]3)cc2)cc1 [Example 126, 4′-{(2S)-2-({[trans-4-(Aminomethyl)cyclohexyl]carbonyl}amino)-3-[(4-{3-[3-(dimethylamino)-1,1,2,2-tetrafluoro-3-oxopropyl]-1H-1,2,4-triazol-5-yl}phenyl)amino]-3-oxopropyl}-2-methyl-N-(piperidin-4-yl)biphenyl-4-carboxamide hydrochloride]",0.14,1.6
"Cc1cc(C(=O)NC2CCN(CC(F)(F)F)CC2)ccc1-c1ccc(C[C@H](NC(=O)[C@H]2CC[C@H](CN)CC2)C(=O)Nc2ccc(-c3nn[nH]n3)cc2)cc1 [Example 46, 4′-[(2S)-2-({[trans-4-(Aminomethyl)cyclohexyl]carbonyl}amino)-3-oxo-3-{[4-(2H-tetrazol-5-yl)phenyl]amino}propyl]-2-methyl-N-[1-(2,2,2-trifluoroethyl)piperidin-4-yl]biphenyl-4-carboxamide hydrochloride]",0.22,3.6
"Cc1cc(C(=O)NC2CCCNC2=O)ccc1-c1ccc(C[C@H](NC(=O)[C@H]2CC[C@H](CN)CC2)C(=O)Nc2ccc3cn[nH]c3c2)cc1 (stereo partly drawn) [Example 143, 4′-[(2S)-2-({[trans-4-(Aminomethyl)cyclohexyl]carbonyl}amino)-3-(1H-indazol-6-ylamino)-3-oxopropyl]-2-methyl-N-(2-oxopiperidin-3-yl)biphenyl-4-carboxamide hydrochloride]",0.07,2.3
"Cc1cc(C(=O)NC2CCNCC2)ccc1-c1ccc(C[C@H](NC(=O)[C@H]2CC[C@H](CN)CC2)C(=O)Nc2ccc(-c3nn[nH]n3)cc2)cc1 [Example 36, 4′-[(2S)-2-({[trans-4-(Aminomethyl)cyclohexyl]carbonyl}amino)-3-oxo-3-{[4-(2H-tetrazol-5-yl)phenyl]amino}propyl]-2-methyl-N-(piperidin-4-yl)biphenyl-4-carboxamide]",0.07,1.7
"COCCOCCOCCOCCNC(=O)c1ccc(-c2ccc(C[C@H](NC(=O)[C@H]3CC[C@H](CN)CC3)C(=O)Nc3ccc(-c4nn[nH]n4)cc3)cc2)c(C)c1 [Example 27, 4′-[(2S)-2-({[trans-4-(Aminomethyl)cyclohexyl]carbonyl}amino)-3-oxo-3-{[4-(2H-tetrazol-5-yl)phenyl]amino}propyl]-2-methyl-N-(2,5,8,11-tetraoxatridecan-13-yl)biphenyl-4-carboxamide hydrochloride]",0.24,2.8
"COC(=O)C(F)(F)C(F)(F)c1n[nH]c(-c2ccc(NC(=O)[C@H](Cc3ccc(-c4ccc(C(=O)NC5CCNCC5)cc4C)cc3)NC(=O)[C@H]3CC[C@H](CN)CC3)cc2)n1 [Example 129, Methyl 3-{5-[4-({(2S)-2-({[trans-4-(aminomethyl)cyclohexyl]carbonyl}amino)-3-[2′-methyl-4′-(piperidin-4-ylcarbamoyl)biphenyl-4-yl]propanoyl}amino)phenyl]-1H-1,2,4-triazol-3-yl}-2,2,3,3-tetrafluoropropanoate hydrochloride]",0.09,1.8
"COc1c(-c2ccc(C[C@H](NC(=O)[C@H]3CC[C@H](CN)CC3)C(=O)Nc3ccc(-c4nn[nH]n4)cc3)cc2)ccc(C(=O)NC2CCNCC2)c1F [Example 121, 4′-[(2S)-2-({[trans-4-(Aminomethyl)cyclohexyl]carbonyl}amino)-3-oxo-3-{[4-(2H-tetrazol-5-yl)phenyl]amino}propyl]-3-fluoro-2-methoxy-N-(piperidin-4-yl)biphenyl-4-carboxamide hydrochloride]",0.007,1
"Cc1cc(C(=O)NC2CNCC(F)(F)C2)ccc1-c1ccc(C[C@H](NC(=O)[C@H]2CC[C@H](CN)CC2)C(=O)Nc2ccc(-c3nn[nH]n3)c(F)c2)cc1 (stereo partly drawn) [Example 90, 4′-[(2S)-2-({[trans-4-(Aminomethyl)cyclohexyl]carbonyl}amino)-3-{[3-fluoro-4-(2H-tetrazol-5-yl)phenyl]amino}-3-oxopropyl]-N-(5,5-difluoropiperidin-3-yl)-2-methylbiphenyl-4-carboxamide hydrochloride]",0.06,1.6
"Cc1cc(C(=O)N[C@H]2CCNC2=O)ccc1-c1ccc(C[C@H](NC(=O)[C@H]2CC[C@H](CN)CC2)C(=O)Nc2cc(F)c3oc(=O)[nH]c3c2)cc1 [Example 99, 4′-{(2S)-2-({[trans-4-(Aminomethyl)cyclohexyl]carbonyl}amino)-3-[(7-fluoro-2-oxo-2,3-dihydro-1,3-benzoxazol-5-yl)amino]-3-oxopropyl}-2-methyl-N-[(3S)-2-oxopyrrolidin-3-yl]biphenyl-4-carboxamide hydrochloride]",0.27,4.7
"NC[C@H]1CC[C@H](C(=O)N[C@@H](Cc2ccc(-c3ccc(C(=O)NC4CC4)cc3)cc2)C(=O)Nc2ccc(-c3nnn[nH]3)cc2)CC1 [Example 62, 4′-[(2S)-2-({[trans-4-(Aminomethyl)cyclohexyl]carbonyl}amino)-3-oxo-3-{[4-(1H-tetrazol-5-yl)phenyl]amino}propyl]-N-cyclopropylbiphenyl-4-carboxamide hydrochloride]",0.53,2.9
"Cc1cc(C(=O)NC2CCNCC2)ccc1-c1ccc(C[C@H](NC(=O)[C@H]2CC[C@H](CN)CC2)C(=O)Nc2ccc(-c3nnc(Cl)[nH]3)cc2)cc1 [Example 49, 4′-[(2S)-2-({[trans-4-(Aminomethyl)cyclohexyl]carbonyl}amino)-3-{[4-(3-chloro-4H-1,2,4-triazol-5-yl)phenyl]amino}-3-oxopropyl]-2-methyl-N-(piperidin-4-yl)biphenyl-4-carboxamide hydrochloride]",0.08,2.1
"CCN(CC)CCNC(=O)c1ccc(-c2ccc(C[C@H](NC(=O)[C@H]3CC[C@H](CN)CC3)C(=O)Nc3ccc4cn[nH]c4c3)cc2)c(C)c1 [Example 6, 4′-[(2S)-2-({[trans-4-(Aminomethyl)cyclohexyl]carbonyl}amino)-3-(1H-indazol-6-ylamino)-3-oxopropyl]-N-[2-(diethylamino)ethyl]-2-methylbiphenyl-4-carboxamide hydrochloride]",0.21,17
"Cc1cc(C(=O)NC2CCC(N(C)Cc3ccccc3)CC2)ccc1-c1ccc(C[C@H](NC(=O)[C@H]2CC[C@H](CN)CC2)C(=O)Nc2ccc(-c3nnn[nH]3)cc2)cc1 (stereo partly drawn) [Example 146, 4′-[(2S)-2-({[trans-4-(Aminomethyl)cyclohexyl]carbonyl}amino)-3-oxo-3-{[4-(1H-tetrazol-5-yl)phenyl]amino}propyl]-N-{4-[benzyl(methyl)amino]cyclohexyl}-2-methylbiphenyl-4-carboxamide hydrochloride]",0.07,1.8
"Cc1cc(C(=O)NC2CCNCC2)ccc1-c1ccc(C[C@H](NC(=O)[C@H]2CC[C@H](CN)CC2)C(=O)Nc2ccc3cn[nH]c3c2)cc1 [Example 4, 4′-[(2S)-2-({[trans-4-(Aminomethyl)cyclohexyl]carbonyl}amino)-3-(1H-indazol-6-ylamino)-3-oxopropyl]-2-methyl-N-(piperidin-4-yl)biphenyl-4-carboxamide hydrochloride]",0.21,11.9
